ChEMBL document CHEMBL3885861, “Open TG-GATES”

Organism: Rattus norvegicus
Assay: Open TG-GATES - Regimen: Single
Format: toxicity, organism-based, Sprague-Dawley
Design: regimen Single, gender Male, age 6 weeks
Conditions: in vivo, po, 25 mg/kg, route gavage, dose level Low; for APTT / Bas / Eos / Fbg / Hb / Ht / Lym / MCH / MCHC / MCV / Mono / Neu / PT / Plat / RBC / Ret / WBC: tissue Blood; for KIDNEY_L / KIDNEY_R / KIDNEY_TOTAL: tissue Kidney; for LIVER: tissue Liver; for ALP / ALT / AST / BUN / CRE / DBIL / GLC / K / Na / PL / RALB / TBIL / TC / TG / TP / gamma-GTP: tissue Plasma

In the case of `CN1C(=O)CN=C(c2ccccc2)c2cc(Cl)ccc21` [DIAZEPAM], the TERMINAL_BW (3 h) is reported as 218.9 g, the APTT (3 h) is reported as 16.3 s and the Bas (3 h) is reported as 0%. The Eos (3 h) was 1.2%, the Fbg (3 h) was 227 mg/dL and the Hb (3 h) was 13.9 g/dL. The Ht (3 h) was 41.8%, the Lym (3 h) was 76.6% and the MCH (3 h) was 21.8 pg. The MCHC (3 h) was 33.2%, the MCV (3 h) was 65.8 fL and the Mono (3 h) was 7.8%. The Neu (3 h) was 14.8%, the PT (3 h) was 12.4 s and the Plat (3 h) was 98.7 x10_4/uL. The RBC (3 h) was 636.6 x10_4/ul, the Ret (3 h) was 8.7% and the WBC (3 h) was 93.5 x10_2/uL. For the same compound, the KIDNEY_L (3 h) was 1 g, the KIDNEY_R (3 h) was 1 g and the KIDNEY_TOTAL (3 h) was 1.9 g. The LIVER (3 h) was 10.3 g, the ALP (3 h) was 763.4 IU/L and the ALT (3 h) was 30 IU/L. For the same compound, the AST (3 h) was 57.8 IU/L, the BUN (3 h) was 13.2 mg/dL and the CRE (3 h) was 0.5 mg/dL. The DBIL (3 h) was 0.018 mg/dL, the GLC (3 h) was 195.4 mg/dL and the K (3 h) was 5.3 meq/L. For the same compound, the Na (3 h) was 139 meq/L, the PL (3 h) was 150.2 mg/dL and the RALB (3 h) was 3.7 g/dL. It also gave a TBIL (3 h) of 0.4 mg/dL, a TC (3 h) of 83.2 mg/dL and a TG (3 h) of 66.2 mg/dL. The TP (3 h) was 5.5 g/dL, the gamma-GTP (3 h) was 2 IU/L and the TERMINAL_BW (6 h) was 216.1 g. The APTT (6 h) was 16.3 s, the Bas (6 h) was 0% and the Eos (6 h) was 0.6%. The Fbg (6 h) was 217 mg/dL, the Hb (6 h) was 13.9 g/dL and the Ht (6 h) was 42%. It also gave a Lym (6 h) of 79.4%, an MCH (6 h) of 21.6 pg and an MCHC (6 h) of 33%. It also gave an MCV (6 h) of 65.2 fL, a Mono (6 h) of 5.6% and a Neu (6 h) of 14.8%. For the same compound, the PT (6 h) was 12.1 s, the Plat (6 h) was 110.2 x10_4/uL and the RBC (6 h) was 643.4 x10_4/ul. It also gave a Ret (6 h) of 8.1%, a WBC (6 h) of 117.8 x10_2/uL and a KIDNEY_L (6 h) of 0.9 g. For the same compound, the KIDNEY_R (6 h) was 1 g, the KIDNEY_TOTAL (6 h) was 1.9 g and the LIVER (6 h) was 9.8 g. For the same compound, the ALP (6 h) was 989.8 IU/L, the ALT (6 h) was 30.8 IU/L and the AST (6 h) was 64.6 IU/L. It also gave a BUN (6 h) of 12 mg/dL, a CRE (6 h) of 0.5 mg/dL and a DBIL (6 h) of 0.058 mg/dL. The GLC (6 h) was 202.2 mg/dL, the K (6 h) was 5.3 meq/L and the Na (6 h) was 138.6 meq/L. For the same compound, the PL (6 h) was 143.4 mg/dL, the RALB (6 h) was 3.8 g/dL and the TBIL (6 h) was 0.4 mg/dL. The TC (6 h) was 77.2 mg/dL, the TG (6 h) was 67.4 mg/dL and the TP (6 h) was 5.7 g/dL. It also gave a gamma-GTP (6 h) of 1 IU/L, a TERMINAL_BW (9 h) of 212.2 g and an APTT (9 h) of 16.6 s. The Bas (9 h) was 0%, the Eos (9 h) was 0.6% and the Fbg (9 h) was 229.8 mg/dL. It also gave a Hb (9 h) of 13.8 g/dL, a Ht (9 h) of 41.7% and a Lym (9 h) of 78.8%. The MCH (9 h) was 21.6 pg, the MCHC (9 h) was 33% and the MCV (9 h) was 65.4 fL. For the same compound, the Mono (9 h) was 6.2%, the Neu (9 h) was 14.4% and the PT (9 h) was 12.2 s. For the same compound, the Plat (9 h) was 102.9 x10_4/uL, the RBC (9 h) was 638.2 x10_4/ul and the Ret (9 h) was 7.5%. It also gave a WBC (9 h) of 107.6 x10_2/uL, a KIDNEY_L (9 h) of 1 g and a KIDNEY_R (9 h) of 1 g. The KIDNEY_TOTAL (9 h) was 2 g, the LIVER (9 h) was 9.4 g and the ALP (9 h) was 723.6 IU/L. It also gave an ALT (9 h) of 26 IU/L, an AST (9 h) of 57.2 IU/L and a BUN (9 h) of 12.4 mg/dL. For the same compound, the CRE (9 h) was 0.6 mg/dL, the DBIL (9 h) was 0.044 mg/dL and the GLC (9 h) was 212.6 mg/dL. It also gave a K (9 h) of 4.8 meq/L, a Na (9 h) of 139.6 meq/L and a PL (9 h) of 142 mg/dL. It also gave an RALB (9 h) of 3.9 g/dL, a TBIL (9 h) of 0.3 mg/dL and a TC (9 h) of 83.8 mg/dL. The TG (9 h) was 44.8 mg/dL, the TP (9 h) was 5.7 g/dL and the gamma-GTP (9 h) was 1.6 IU/L. The TERMINAL_BW (24 h) was 227.7 g, the APTT (24 h) was 16.3 s and the Bas (24 h) was 0%. For the same compound, the Eos (24 h) was 1%, the Fbg (24 h) was 219.6 mg/dL and the Hb (24 h) was 13.4 g/dL. The Ht (24 h) was 40.4%, the Lym (24 h) was 81% and the MCH (24 h) was 21.7 pg. It also gave an MCHC (24 h) of 33.1%, an MCV (24 h) of 65.7 fL and a Mono (24 h) of 5.6%. It also gave a Neu (24 h) of 12.2%, a PT (24 h) of 12.2 s and a Plat (24 h) of 105.2 x10_4/uL. For the same compound, the RBC (24 h) was 616 x10_4/ul, the Ret (24 h) was 8.5% and the WBC (24 h) was 100.5 x10_2/uL. For the same compound, the KIDNEY_L (24 h) was 1 g, the KIDNEY_R (24 h) was 1.1 g and the KIDNEY_TOTAL (24 h) was 2.1 g. For the same compound, the LIVER (24 h) was 11.2 g, the ALP (24 h) was 1114.4 IU/L and the ALT (24 h) was 33.8 IU/L. It also gave an AST (24 h) of 63 IU/L, a BUN (24 h) of 16.6 mg/dL and a CRE (24 h) of 0.5 mg/dL. It also gave a DBIL (24 h) of 0.016 mg/dL, a GLC (24 h) of 185.6 mg/dL and a K (24 h) of 5.1 meq/L. It also gave a Na (24 h) of 140 meq/L, a PL (24 h) of 152.8 mg/dL and an RALB (24 h) of 3.7 g/dL. The TBIL (24 h) was 0.3 mg/dL, the TC (24 h) was 82.2 mg/dL and the TG (24 h) was 108.6 mg/dL. For the same compound, the TP (24 h) was 5.8 g/dL and the gamma-GTP (24 h) was 1.2 IU/L.
